Source: ChEMBL document CHEMBL1156403, “A new dimeric dihydrochalcone and a new prenylated flavone from the bud covers of Artocarpus altilis: potent inhibitors of cathepsin K” (J Nat Prod, 2002)

Biological target: T1, Cathepsin K (Homo sapiens, UniProt P43235)
T1 sequence (P43235 whole entry): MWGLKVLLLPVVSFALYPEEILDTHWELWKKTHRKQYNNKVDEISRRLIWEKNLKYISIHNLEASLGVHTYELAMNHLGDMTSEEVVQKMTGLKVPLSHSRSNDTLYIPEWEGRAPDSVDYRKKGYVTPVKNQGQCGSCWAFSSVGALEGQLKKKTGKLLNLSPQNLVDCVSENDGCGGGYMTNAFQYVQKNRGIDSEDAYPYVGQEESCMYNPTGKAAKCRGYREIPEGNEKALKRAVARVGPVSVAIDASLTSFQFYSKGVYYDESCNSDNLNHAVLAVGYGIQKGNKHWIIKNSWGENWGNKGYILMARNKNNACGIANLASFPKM
Assay: Inhibition of cathepsin K by fluorimetric assay

| IC50 | Compound |
| --- | --- |
| 170 nM | CC(C)=CCC/C(C)=C/Cc1c(CCC(=O)c2ccc(O)cc2O)ccc(O)c1O |
| 840 nM | CC(C)=CCCC1(C)C=Cc2c(cc(O)c3c2OC(c2ccc(O)cc2)CC3=O)O1 (stereo not drawn) [CYCLOALTILISIN 7] |

| Compound | IC50 |
| --- | --- |
| CC(C)=CCC/C(C)=C/Cc1c(CCC(=O)c2ccc(O)cc2O)cc(-c2cc(O)c(O)c(C/C=C(\C)CCC=C(C)C)c2CCC(=O)c2ccc(O)cc2O)c(O)c1O [CYCLOALTILISIN 6] | 98 nM |
